How the values were obtained:
in vivo = details: nude, mouse, iv
UACC-257 = assay: NCI 60 Cell Line Panel growth inhibition; assay type: cell-based, human; details: UACC-257, Melanoma, TP53 wild type
From the text: (§1) The NCI-60 Cell Line Panel was assembled by the National Cancer Institute as an in vitro anticancer drug screen. The panel comprises human cancer cell lines representing nine different tissues of origin: breast, colon, central nervous system, renal, lung, melanoma, ovarian, prostate, and hematogenous. […] See, e.g., Leroy et al. “Analysis of TP53 Mutation Status in Human Cancer Cell Lines: a Reassesment” Hum Mutat 2014 35(6): 756-765.

HS 578T = assay: NCI 60 Cell Line Panel growth inhibition; assay type: cell-based, human; details: Breast cancer, TP53 null/mutant
From the text: as §1

SW-620 = assay: NCI 60 Cell Line Panel growth inhibition; assay type: cell-based, human; details: SW-620, Colon cancer, TP53 null/mutant
From the text: as §1

KM12 = assay: NCI 60 Cell Line Panel growth inhibition; assay type: cell-based, human; details: KM12, Colon cancer, TP53 null/mutant
From the text: as §1

PC-3 = assay: NCI 60 Cell Line Panel growth inhibition; assay type: cell-based, human; details: PC-3, Prostate cancer, TP53 null/mutant
From the text: as §1

NCI-H226 = assay: NCI 60 Cell Line Panel growth inhibition; assay type: cell-based, human; details: NCI-H226, Lung-NSCL, TP53 null/mutant
From the text: as §1

CAKI-1 = assay: NCI 60 Cell Line Panel growth inhibition; assay type: cell-based, human; details: CAKI-1, Renal cancer, TP53 wild type
From the text: as §1

SR = assay: NCI 60 Cell Line Panel growth inhibition; assay type: cell-based, human; details: Leukemia, TP53 wild type
From the text: as §1

DU-145 = assay: NCI 60 Cell Line Panel growth inhibition; assay type: cell-based, human; details: DU-145, Prostate cancer, TP53 null/mutant
From the text: as §1

SN12C = assay: NCI 60 Cell Line Panel growth inhibition; assay type: cell-based, human; details: Renal cancer, TP53 null/mutant
From the text: as §1

HCT-15 = assay: NCI 60 Cell Line Panel growth inhibition; assay type: cell-based, human; details: HCT-15, Colon cancer, TP53 null/mutant
From the text: as §1

HOP-92 = assay: NCI 60 Cell Line Panel growth inhibition; assay type: cell-based, human; details: HOP-92, Lung-NSCL, TP53 null/mutant
From the text: as §1

HCC-2998 = assay: NCI 60 Cell Line Panel growth inhibition; assay type: cell-based, human; details: HCC-2998, Colon cancer, TP53 null/mutant
From the text: as §1

MOLT-4 = assay: NCI 60 Cell Line Panel growth inhibition; assay type: cell-based, human; details: MOLT-4, Leukemia, TP53 null/mutant
From the text: as §1

HT29 = assay: NCI 60 Cell Line Panel growth inhibition; assay type: cell-based, human; details: HT29, Colon cancer, TP53 null/mutant
From the text: as §1

OVCAR-4 = assay: NCI 60 Cell Line Panel growth inhibition; assay type: cell-based, human; details: OVCAR-4, Ovarian cancer, TP53 null/mutant
From the text: as §1

A549/ATCC = assay: NCI 60 Cell Line Panel growth inhibition; assay type: cell-based, human; details: Lung-NSCL, TP53 wild type
From the text: as §1

SNB-75 = assay: NCI 60 Cell Line Panel growth inhibition; assay type: cell-based, human; details: SNB-75, CNS cancer, TP53 null/mutant
From the text: as §1

[1] = system: TP53 WT colon cancer cell line Ls174T; assay: CellTiter-Glo growth inhibition, Ls174T; assay type: cell-based; details: Homo sapiens, 72-hour exposure, FIG. 1
Procedure: (§2) Two examples of additional comparisons are provided below for colon cancer cell lines (TP53 WT colon cancer cell line Ls174T and TP53 WT colon cancer cell line LoVo).
(§3) In these assays, two 96 well plates of each cell line were seeded with 5,000 cells per well in a total volume of […] per well and left incubating overnight. The following day, the cells were exposed to different concentrations of NUC013. At the end of a 72-hour exposure period, the plates were removed for CellTiter-Glo® assay. Luminescence was recorded on a Synergy 4.0.

[2] = system: LoVo (colon cancer, TP WT); assay: Xenograft model, nude mice implanted with LoVo; details: for mean tumor volumes compared to saline control: study days 9 through 51, FIG. 3B
[3] = system: TP53 WT colon cancer cell line LoVo; assay: CellTiter-Glo growth inhibition, LoVo; assay type: cell-based; details: Homo sapiens, 72-hour exposure, FIG. 2
Procedure: as §2, §3

CFPAC-1 = assay: Growth inhibition of pancreatic cancer cell line CFPAC-1; assay type: cell-based; details: Homo sapiens
[4] = Pharmacokinetics after SC administration of NUC041 in phospholipid gel depot to mice; details: analyte in plasma following SC administration of NUC041 (100 mg/kg) to mice
[5] = NUC013 administered IV to mice

For Nc1ncn([C@@H]2O[C@H](CO)[C@@H](O)C2(F)F)c(=O)n1 [NUC013, 4-amino-1-((2R,4R,5R)-3,3-difluoro-4-hydroxy-5-(hydroxymethyl)tetrahydrofuran-2-yl)-1,3,5-triazin-2(1H)-one], the MTD at 3 weeks (in vivo) was greater than 120 mg/kg, the “Growth (%) at 10 μM” value (UACC-257) was 77.54% and the “Growth (%) at 10 μM” value (HS 578T) was 90.37%. For the same compound, the “Growth (%) at 10 μM” value (SW-620) was 51.21%, the “Growth (%) at 10 μM” value (KM12) was 61.18% and the “Growth (%) at 10 μM” value (PC-3) was 63.57%. The “Growth (%) at 10 μM” value (NCI-H226) was 52.34%, the “Growth (%) at 10 μM” value (CAKI-1) was 27.86% and the “Growth (%) at 10 μM” value (SR) was 14.99%. For the same compound, the “Growth (%) at 10 μM” value (DU-145) was 43.48%, the “Growth (%) at 10 μM” value (SN12C) was 51.65% and the “Growth (%) at 10 μM” value (HCT-15) was 52.19%. The “Growth (%) at 10 μM” value (HOP-92) was 34.34%, the “Growth (%) at 10 μM” value (HCC-2998) was 60.44% and the “Growth (%) at 10 μM” value (MOLT-4) was 35.63%. The “Growth (%) at 10 μM” value (HT29) was 70.09%, the “Growth (%) at 10 μM” value (OVCAR-4) was 94.88% and the “Growth (%) at 10 μM” value (A549/ATCC) was 37.91%. For the same compound, the “Growth (%) at 10 μM” value (SNB-75) was 64.95%, the GI50 [1] was 1.3 µM and the “survival compared to saline controls” value ([2]; 5.8 mg/kg) was “no difference in survival”. For the same compound, the “mean tumor weight lower compared to controls” value ([2]; 5.8 mg/kg, 8 days following the end of treatment) was 24.3%, the “mean tumor volumes compared to saline control” value ([2]; 20 mg/kg) was “significantly lower” and the “mean tumor volumes compared to saline control” value ([2]; 40 mg/kg) was “significantly lower”. The GI50 [3] was 3 µM, the GI50 (CFPAC-1) was 53.8 µM and the “AUClast (area under the plasma concentration versus time curve from 0 to last quantifiable sampling time)” value [4] was 1939 ng·h/mL. The half-life [5] was 20 min.

— US20190054103A1, “METHOD OF TREATMENT OF TP53 WILD-TYPE TUMORS WITH 2',2'-DIFLUORO-5-AZA-2'-DEOXYCYTIDINE OR PRODRUGS THEREOF” (priority 2016, published 2019)
